Measured values taken from patent publication US20230172894A1, “COMBINATION TREATMENT FOR FUMARATE-RELATED DISEASES” (IMCYSE SA, priority 2020, published 2023).
Like-named read-outs stand apart in the source and are kept apart here. No end group written: not given here.

What was measured:
[1] = system: experimental auto-immune encephalomyelitis (EAE) development in mice; details: Example 4; 16 mice per group
Source text: Example 4: Effect of the therapeutic administration of an immunogenic peptide comprising a human MOG201-212 MHCII T cell epitope linked to a KHCPYC oxidoreductase motif in combination with dimethyl fumarate (BG-12, […]™) on experimental auto-immune encephalomyelitis (EAE) development in mice.
The study used a total of 96 female C57BL/6 mice (Taconic Biosciences, 9 weeks old on Day 0). Mice were acclimated for 7 days prior to the first injection. Mice were assigned to groups in a balanced manner to achieve similar average weight across the groups at the start of the study.
Treatment 1 was administered once on each of the days indicated in Table 5, s.c., at a volume of 0.05 mL/site, each mouse receiving injection at two sites, for a total of 0.1 mL/mouse/dosing day. IMCY-0189 or P4 peptide total dose was 30 μg per administration.
(§1) BG-12 was dosed at 100 mg/kg.
(§2) All dosing were done at the same time (+/−1 hour) each dosing day. For the BID groups there were no less than 10 and no more than 14 hours between doses.
Lyophilized immunogenic peptide P4 with the sequence […] (SEQ ID NO: 176), comprising an oxidoreductase motif KHCPYC (SEQ ID NO: 77), a linker VRY, a human Myelin Oligodendrocyte Glycoprotein (MOG201-212) MHCII T cell epitope […] (SEQ ID NO: 165) and a flanking sequence TLFKK (SEQ ID NO: 267) (Smart Bioscience) was solubilized immediately before use. Lyophilized P4 was thawed at room temperature for 10 minutes, resuspended in Na Acetate buffer 50 mM NaCl 0.9% pH 5.4 and incubated at room temperature for 10 minutes. Reconstituted peptide was then mixed with Imject™ Alum Adjuvant before injection.
(§3) Treatment 2 was prepared as described in example 2.
EAE induction, scoring and statistical analysis were performed as described in example 2.
(§4) EAE development was evaluated by comparing clinical EAE readouts for all groups to the negative control (Saline/Vehicle) group.

[2] = system: experimental auto-immune encephalomyelitis (EAE) development in mice; details: Example 2, 16 mice per group
Source text: Example 2: Effect of the therapeutic administration of an immunogenic peptide comprising a MOG35-55 MHCII T cell epitope linked or not to an HCPYC oxidoreductase motif in combination with dimethyl fumarate (BG-12, […]™) on experimental auto-immune encephalomyelitis (EAE) development in mice.
The study used a total of 96 female C57BL/6 mice (Taconic Biosciences, 10 weeks old on Day 0). Mice were acclimated for 14 days prior to the first injection. Mice were assigned to groups in a balanced manner to achieve similar average weight across the groups at the start of the study.
Treatment 1 was administered once on each of the days indicated in Table 3, s.c., at a volume of 0.05 mL/site, each mouse receiving injection at two sites, for a total of 0.1 mL/mouse/dosing day. IMCY-0189 or MOG35-55 peptide total dose was 30 μg per administration.
as §1, §2
Lyophilized mouse MOG35-55 peptide with the sequence […] (SEQ ID NO:205), comprising the mouse Myelin Oligodendrocyte Glycoprotein (MOG35-55) MHCII T cell epitope […] (SEQ ID NO:169), was solubilized immediately before use. Lyophilized MOG35-55 peptide was thawed at room temperature for 10 minutes, resuspended in Na Acetate buffer 50 mM NaCl 0.9% pH 5.4 and incubated at room temperature for 10 minutes. Reconstituted MOG35-55 peptide was then mixed with Imject™ Alum Adjuvant before injection. Note that the positions 35 to 55 refer to the mature protein, i.e. after cleavage of the signal peptide (AA 1-29), defined by SEQ ID NO: 208. In the full-length amino acid sequence of MOG (SEQ ID NO: 184), said peptide would be at positions 64-84.
Lyophilized IMCY-0189 was thawed at room temperature for 10 minutes, resuspended in Na Acetate buffer 50 mM NaCl 0.9% pH 5.4 and incubated at room temperature for 10 minutes. Reconstituted peptide was then mixed with Imject™ Alum Adjuvant before injection.
For Treatment 2, vehicle was 0.5% HPMC, 0.2% Tween 20, and 50 mM citrate buffer at pH 4. BG-12 (Santa Cruz Biotechnology, sc-239774) and was prepared at least every 2 weeks. At each preparation the required amount of BG-12 was weighed out into a mortar and triturated with a pestle. Vehicle was then added in small increments and mixed until the final volume was reached. The material was then vortexed and sonicated in a water bath until a homogeneous suspension was obtained. Formulated BG-12 was stored at 4° C., stirring continuously.
EAE induction, scoring and statistical analysis were performed as described in example 1.
as §4

[3] = system: experimental auto-immune encephalomyelitis (EAE) development in mice; experiment: Example 3: serum neurofilament light (NF-L) levels in EAE mice; format: in vivo, female C57BL/6 mice; details: Day 28 serum, vs negative control
Experimental: On Day 28, blood was collected from all mice into gel clot activator tubes and allowed to clot at room temperature for ˜30 minutes. Blood is then centrifuged at ˜10000 g for 5 minutes. Serum was transferred into Eppendorf tubes and stored at −80° C. until shipment to Quanterix™. Serum Neurofilament light (NF-L) protein levels were quantified using Simoa® NF-light Advantage kit as described in example 1.

[4] = system: experimental auto-immune encephalomyelitis (EAE) development in mice; details: Example 3; for mice died in group: 16 mice per group; for disease onset: peptide 30 μg/Alum s.c. days 4, 9, 14, 19, BG-12 100 mg/kg p.o. BID days 0 to 27; for disease onset / AUC (area under the curve) of EAE scores / MMS (mean maximal score) / end score (clinical EAE score 0-5): vs negative control
Source text: Example 3: Effect of the therapeutic administration of an immunogenic peptide comprising a MOG35-55 MHCII T cell epitope linked to a KCRC (SEQ ID NO: 65) or KCRPYC (SEQ ID NO: 84) oxidoreductase motif in combination with dimethyl fumarate (BG-12, […]™) on experimental auto-immune encephalomyelitis (EAE) development in mice.
The study used a total of 128 female C57BL/6 mice (Taconic Biosciences, 9 weeks old on Day 0). Mice were acclimated for 7 days prior to the first injection. Mice were assigned to groups in a balanced manner to achieve similar average weight across the groups at the start of the study.
Treatment 1 was administered once on each of the days indicated in Table 4, s.c., at a volume of 0.05 mL/site, each mouse receiving injection at two sites, for a total of 0.1 mL/mouse/dosing day. IMCY-0189 (CXXC oxidoreductase motif, IMCY-0453 (CXC oxidoreductase motif) or IMCY-0455 (CXXXC oxidoreductase motif) peptide total dose was 30 μg per administration.
as §1, §2
(SEQ ID NO: 266), comprising an oxidoreductase motif KCRC (SEQ ID NO: 65), a linker GW, a murine Myelin Oligodendrocyte Glycoprotein (MOG35-55) MHCII T cell epitope […] (SEQ ID NO: 169) and a flanking sequence HLYR (SEQ ID NO: 186) (Smart Bioscience) was solubilized immediately before use. Lyophilized IMCY-0453 was thawed at room temperature for 10 minutes, resuspended in Na Acetate buffer 50 mM NaCl 0.9% pH 5.4 and incubated at room temperature for 10 minutes. Reconstituted peptide was then mixed with Imject™ Alum Adjuvant before injection.
(SEQ ID NO: 268), comprising an oxidoreductase motif KCRPYC (SEQ ID NO: 84), a linker GW, a murine Myelin Oligodendrocyte Glycoprotein (MOG35-55) MHCII T cell epitope […] (SEQ ID NO: 169) and a flanking sequence HLYR (SEQ ID NO: 186) (Smart Bioscience) was solubilized immediately before use. Lyophilized IMCY-0455 was thawed at room temperature for 10 minutes, resuspended in Na Acetate buffer 50 mM NaCl 0.9% pH 5.4 and incubated at room temperature for 10 minutes. Reconstituted peptide was then mixed with Imject™ Alum Adjuvant before injection.
as §3
EAE induction, scoring and statistical analysis were performed as described in example
as §4

Molecule	mice died in group [1]	mice died in group [2]	mice died in group ([2]; listed as MOG35-55/Vehicle) [mice]	serum NF-L levels [3]	mice died in group [4] [mice]	disease onset [4]	AUC (area under the curve) of EAE scores [4]	MMS (mean maximal score) [4]	end score (clinical EAE score 0-5) [4]
CC[C@H](C)[C@H](NC(=O)[C@H](CCCCN)NC(=O)[C@H](Cc1c[nH]c2ccccc12)NC(=O)[C@H](CO)NC(=O)[C@@H]1CCCN1C(=O)[C@@H](NC(=O)[C@H](CCCNC(=N)N)NC(=O)[C@H](CC(C)C)NC(=O)[C@H](Cc1ccccc1)NC(=O)[C@H](Cc1ccc(O)cc1)NC(=O)[C@H](CCCNC(=N)N)NC(=O)[C@@H](NC(=O)[C@H](CS)NC(=O)[C@H](Cc1ccc(O)cc1)NC(=O)[C@@H]1CCCN1C(=O)[C@H](CS)NC(=O)[C@H](Cc1c[nH]cn1)NC(=O)[C@@H](N)CCCCN)C(C)C)C(C)C)C(=O)N[C@H](C(=O)N[C@@H](CC(C)C)C(=O)N[C@@H](Cc1ccccc1)C(=O)N[C@@H](CCCCN)C(=O)N[C@@H](CCCCN)C(=O)O)[C@@H](C)O [P4]	No mice died								
MEVGWYRSPFSRVVHLYRNGK [MOG35-55 peptide]		No mice died	2						
KCRCGWYRSPFSRVVHLYR [IMCY-0453]				statistically significant reduced NF-L levels	1	statistically significantly improved	statistically significantly improved	statistically significantly improved	statistically significantly improved
KCRPYCGWYRSPFSRVVHLYR [IMCY-0455]				statistically significant reduced NF-L levels	1	statistically significantly improved	statistically significantly improved	statistically significantly improved	statistically significantly improved
